From PubChem BioAssay AID256 (DTP/NCI, 2004) come the findings set out here.

The test deals with CD2F1 mice, L1210 leukemia ip, survival T/C. Put plainly: NCI In Vivo Anticancer Drug Screen. Data for tumor model L1210 Leukemia (intraperitoneal) in CD2F1 (CDF1) mice. To be noted: endpoint: mean survival time, higher = longer survival. In a few lines:
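Implant tumor; dose compound or vehicle; measure endpoint in both groups; report treated divided by control.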

The mark [1] stands for this setting: dose: 100.0 mg/kg/injection, schedule: Q01DX001 (ip), vehicle: saline with Tween-80.
Setting [2] is: dose: 100.0 mg/kg/injection, schedule: Q04DX003 (ip), vehicle: saline with Tween-80.
Setting [3] is: dose: 200.0 mg/kg/injection, schedule: Q04DX003 (ip), vehicle: saline with Tween-80.
Where [4] appears, read: dose: 400.0 mg/kg/injection, schedule: Q04DX003 (ip), vehicle: saline with Tween-80.
The mark [5] stands for this setting: dose: 100.0 mg/kg/injection, schedule: Q01DX009 (ip), vehicle: saline with Tween-80.
Setting [6] is: dose: 200.0 mg/kg/injection, schedule: Q01DX001 (ip), vehicle: saline with Tween-80.
Setting [7] is: dose: 400.0 mg/kg/injection, schedule: Q01DX001 (ip), vehicle: saline with Tween-80.
Where [8] appears, read: dose: 100.0 mg/kg/injection, schedule: Q04DX002 (ip), vehicle: saline with Tween-80.
Where [9] appears, read: dose: 200.0 mg/kg/injection, schedule: Q04DX002 (ip), vehicle: saline with Tween-80.
The mark [10] stands for this setting: dose: 400.0 mg/kg/injection, schedule: Q04DX002 (ip), vehicle: saline with Tween-80.
[11] abbreviates: dose: 25.0 mg/kg/injection, schedule: Q01DX009 (ip), vehicle: saline.
Setting [12] is: dose: 100.0 mg/kg/injection, schedule: Q04DX003 (ip), vehicle: Klucel (hydroxypropylcellulose) (HPC).
Where [13] appears, read: dose: 200.0 mg/kg/injection, schedule: Q04DX003 (ip), vehicle: Klucel (hydroxypropylcellulose) (HPC).

Molecules are shown by their SMILES. Several values for one entry are separate records, joined by “and”; a condition that tells them apart may be missing. Equal values may be shown once. Toxic doses and inconclusive results are not listed.

For `CC(C)=NNc1cc(N)nc2c1ncn2C1OC(CO)C(O)C1O` (centres undefined), the T/C (dose: 50.0 mg/kg/injection, schedule: Q01DX005 (ip), vehicle: water) is 90 % of control; the T/C (dose: 100.0 mg/kg/injection, schedule: Q01DX005 (ip), vehicle: water) is 94 % of control; the T/C (dose: 200.0 mg/kg/injection, schedule: Q01DX005 (ip), vehicle: water) is 104 % of control.

As for `CCCCCCCCCCCCOc1ccc(Sc2ccc(OCCCCCCCCCCCC)cc2C)c(C)c1`, the T/C under setting [1] was 86 % of control.

Take `Nc1ccc(Br)cc1`: the T/C is 97 % of control under setting [2], 100 % of control under setting [3] and 87 % of control under setting [4].

On to `CS(=O)(=O)OCCCN(CCCOS(C)(=O)=O)c1ccc(C=Nc2ccc(-c3csc(COc4ccc(Cl)cc4Cl)n3)cc2)cc1`, for which the T/C reads like this: under setting [1], 86 % of control; under setting [5], 93 % of control; under setting [6], 86 % of control; under setting [7], 89 % of control.

Turning to `CCCCOC(=O)/C=C(\CC(=O)OCCCC)C(=O)OCCCC`, the T/C is, setting by setting: under setting [1], 97 % of control; under setting [6], 97 % of control; under setting [7], 103 % of control.

For `C=CCS(=O)(=O)Cc1cccc(C)c1`, the T/C (dose: 100.0 mg/kg/injection, schedule: Q01DX001 (ip), vehicle: Klucel (hydroxypropylcellulose) (HPC)) is 93 % of control; the T/C (dose: 200.0 mg/kg/injection, schedule: Q01DX001 (ip), vehicle: Klucel (hydroxypropylcellulose) (HPC)) was 107 % of control; the T/C (dose: 400.0 mg/kg/injection, schedule: Q01DX001 (ip), vehicle: Klucel (hydroxypropylcellulose) (HPC)) is 101 % of control.

With `FC(F)(F)c1cccc(NC2=NCCO2)c1`, the T/C was 92 % of control under setting [1], 93 % of control under setting [6] and 91 % of control under setting [7].

On to `CC1C(=O)OC2C1CCC1(C)C(O)OC(=O)C(C)C21` (centres undefined), for which the T/C runs as follows: under setting [8], 104 % of control and 96 % of control; under setting [9], 100 % of control and 108 % of control; under setting [10], 100 % of control and 104 % of control.

Regarding `CCCCCCCCCCCC(C)CC(CN)C(=O)OCC` (centres undefined), the T/C is, setting by setting: (dose: 100.0 mg/kg/injection, schedule: Q04DX002 (ip), vehicle: saline) 92 % of control; (dose: 200.0 mg/kg/injection, schedule: Q04DX002 (ip), vehicle: saline) 100 % of control; (dose: 400.0 mg/kg/injection, schedule: Q04DX002 (ip), vehicle: saline) 100 % of control.

For `COc1ccncn1`, the T/C by setting is: under setting [8], 98 % of control; under setting [9], 95 % of control; under setting [10], 106 % of control.

As for `CCCNC(C)=O`, the T/C was 97 % of control (dose: 100.0 mg/kg/injection, schedule: Q04DX003 (ip), vehicle: saline); 97 % of control (dose: 200.0 mg/kg/injection, schedule: Q04DX003 (ip), vehicle: saline); 100 % of control (dose: 400.0 mg/kg/injection, schedule: Q04DX003 (ip), vehicle: saline).

With `O=C(/C=C/c1ccccc1)SCc1ccccc1`, the T/C reads like this: under setting [2], 96 % of control; under setting [3], 98 % of control; under setting [4], 94 % of control.

Regarding `BrCc1ccccc1C[P+](c1ccccc1)(c1ccccc1)c1ccccc1`, the T/C (dose: 3.13 mg/kg/injection, schedule: Q01DX009 (ip), vehicle: saline sonified) is 107 % of control; the T/C (dose: 6.25 mg/kg/injection, schedule: Q01DX009 (ip), vehicle: saline sonified) is 96 % of control; the T/C (dose: 12.5 mg/kg/injection, schedule: Q04DX003 (ip), vehicle: saline sonified) is 107 % of control; the T/C (dose: 25.0 mg/kg/injection, schedule: Q04DX003 (ip), vehicle: saline sonified) is 100 % of control.

Turning to `Cc1ccc([N+](=O)[O-])cc1O`, the T/C under setting [11] is 97 % of control; the T/C (dose: 50.0 mg/kg/injection, schedule: Q01DX009 (ip), vehicle: saline) is 106 % of control; the T/C (dose: 100.0 mg/kg/injection, schedule: Q01DX009 (ip), vehicle: saline) is 100 % of control.

For the molecule `O=C(O)C1(C(=O)O)CCCCC1.[NH2-].[NH2-].[Pt+2]`, the T/C was 108 % of control (dose: 12.5 mg/kg/injection, schedule: Q04DX003 (ip), vehicle: suspension in saline); 122 % of control (dose: 25.0 mg/kg/injection, schedule: Q04DX003 (ip), vehicle: suspension in saline); 182 % of control (dose: 80.0 mg/kg/injection, schedule: Q04DX003 (ip), vehicle: saline); 112 % of control (dose: 100.0 mg/kg/injection, schedule: Q04DX003 (ip), vehicle: suspension in saline).

Regarding `CCCCCCCCCCCCCCCC[N+]1(C)CCSCC1`, the T/C was 93 % of control and 103 % of control (dose: 0.78 mg/kg/injection, schedule: Q01DX009 (ip), vehicle: saline); 106 % of control (dose: 1.56 mg/kg/injection, schedule: Q04DX003 (ip), vehicle: saline); 104 % of control (dose: 3.13 mg/kg/injection, schedule: Q01DX001 (ip), vehicle: saline); 110 % of control (dose: 3.13 mg/kg/injection, schedule: Q04DX003 (ip), vehicle: saline); 104 % of control (dose: 6.25 mg/kg/injection, schedule: Q01DX001 (ip), vehicle: saline); 104 % of control (dose: 6.25 mg/kg/injection, schedule: Q04DX003 (ip), vehicle: saline). Further, the T/C was 97 % of control (dose: 12.5 mg/kg/injection, schedule: Q01DX001 (ip), vehicle: saline with Tween-80); 104 % of control (dose: 12.5 mg/kg/injection, schedule: Q01DX001 (ip), vehicle: saline); 102 % of control (dose: 12.5 mg/kg/injection, schedule: Q04DX003 (ip), vehicle: saline); 95 % of control (dose: 25.0 mg/kg/injection, schedule: Q01DX001 (ip), vehicle: saline with Tween-80); 104 % of control (dose: 25.0 mg/kg/injection, schedule: Q01DX001 (ip), vehicle: saline); 87 % of control under setting [11]. Moreover, the T/C was 88 % of control (dose: 25.0 mg/kg/injection, schedule: Q04DX002 (ip), vehicle: saline) and 100 % of control (dose: 50.0 mg/kg/injection, schedule: Q01DX001 (ip), vehicle: saline with Tween-80).

In the case of `CC(=O)C1CCC2C3CC=C4CC(n5ccc(=O)[nH]c5=O)CCC4(C)C3CCC12C` (centres undefined), the T/C by setting is: (dose: 12.5 mg/kg/injection, schedule: Q04DX003 (ip), vehicle: Klucel (hydroxypropylcellulose) (HPC)) 97 % of control; (dose: 25.0 mg/kg/injection, schedule: Q04DX003 (ip), vehicle: Klucel (hydroxypropylcellulose) (HPC)) 101 % of control; (dose: 50.0 mg/kg/injection, schedule: Q04DX003 (ip), vehicle: Klucel (hydroxypropylcellulose) (HPC)) 97 % of control; under setting [12], 97 % of control; under setting [13], 92 % of control.

Turning to `COc1ccc2nc3cc(Cl)ccc3c(NCCC[N+](C)(C)CCCCCCCCCCCCCCCC[N+](C)(C)CCCNc3c4ccc(Cl)cc4nc4ccc(OC)cc34)c2c1`, the T/C reads like this: (dose: 1.56 mg/kg/injection, schedule: Q01DX009 (ip), vehicle: other) 96 % of control; (dose: 3.13 mg/kg/injection, schedule: Q01DX009 (ip), vehicle: other) 94 % of control; (dose: 6.25 mg/kg/injection, schedule: Q01DX009 (ip), vehicle: other) 105 % of control.

With `CCOC(=N)c1ccccc1`, the T/C under setting [1] was 94 % of control; the T/C under setting [12] was 103 % of control; the T/C under setting [6] is 97 % of control; the T/C under setting [13] is 101 % of control; the T/C under setting [7] was 102 % of control; the T/C (dose: 400.0 mg/kg/injection, schedule: Q04DX003 (ip), vehicle: Klucel (hydroxypropylcellulose) (HPC)) is 105 % of control.

Take `CCOC1=NN(c2ccccc2)C(=O)C1`: the T/C under setting [2] is 97 % of control, the T/C under setting [3] is 100 % of control and the T/C under setting [4] was 103 % of control.

Regarding `N#CSCc1ccc(Cl)cc1Cl`, the T/C is 103 % of control (dose: 50.0 mg/kg/injection, schedule: Q01DX009 (ip), vehicle: saline with Tween-80); 101 % of control under setting [5]; 96 % of control (dose: 200.0 mg/kg/injection, schedule: Q01DX009 (ip), vehicle: saline with Tween-80).

As to `CCCC[PH+](CCCC)CCCC.CCCC[PH+](CCCC)CCCC.O=[N+]([O-])O.O=[N+]([O-])O.[Ni]`, the T/C (dose: 50.0 mg/kg/injection, schedule: Q04DX002 (ip), vehicle: saline with Tween-80) is 92 % of control.

For `c1ccc(COCCOCc2ccccc2)cc1`, the T/C by setting is: under setting [2], 96 % of control; under setting [3], 97 % of control; under setting [4], 108 % of control.
